Activity calls are given as the source filed them. No rule for the calls is given here.
Legend:
Experiment in all cases: PubChem AID 504934
TR4 = details: nuclear receptor panel Gal4 luciferase reporter, at 10 µM
VP16 Control Plasmid = details: nuclear receptor panel Gal4 luciferase reporter, at 10 µM
[1] = target: COUP transcription factor 2 (Homo sapiens) (UniProt P24468); details: nuclear receptor panel Gal4 luciferase reporter, Coup-TF2, at 10 µM
ERRg = details: nuclear receptor panel Gal4 luciferase reporter, at 10 µM
MR = details: nuclear receptor panel Gal4 luciferase reporter, at 10 µM
[2] = target: Estrogen receptor (Homo sapiens) (UniProt P03372); details: nuclear receptor panel Gal4 luciferase reporter, ESR1 (ESRA; Era), at 10 µM
Sequence of Estrogen receptor (Homo sapiens) (P03372 whole entry, looked up, the tested form may be a part): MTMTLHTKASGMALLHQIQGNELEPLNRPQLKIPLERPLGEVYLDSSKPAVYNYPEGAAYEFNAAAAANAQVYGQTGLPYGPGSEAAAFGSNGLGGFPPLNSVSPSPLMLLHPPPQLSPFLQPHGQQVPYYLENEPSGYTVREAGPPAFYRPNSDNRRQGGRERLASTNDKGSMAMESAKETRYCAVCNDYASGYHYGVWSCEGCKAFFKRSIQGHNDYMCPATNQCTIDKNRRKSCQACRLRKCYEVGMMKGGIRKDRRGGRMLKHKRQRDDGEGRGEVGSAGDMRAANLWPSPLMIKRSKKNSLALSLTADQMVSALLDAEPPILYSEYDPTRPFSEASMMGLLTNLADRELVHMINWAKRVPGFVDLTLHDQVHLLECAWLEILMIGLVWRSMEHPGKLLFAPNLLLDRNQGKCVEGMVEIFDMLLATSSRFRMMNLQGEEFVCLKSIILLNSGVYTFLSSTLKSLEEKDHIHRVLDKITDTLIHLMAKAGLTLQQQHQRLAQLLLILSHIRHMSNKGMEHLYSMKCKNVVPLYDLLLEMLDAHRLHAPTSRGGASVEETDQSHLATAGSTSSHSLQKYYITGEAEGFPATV

[3] = target: Nuclear receptor ROR-alpha (Homo sapiens) (UniProt P35398); details: nuclear receptor panel Gal4 luciferase reporter, RORa, at 10 µM
[4] = target: Nuclear receptor subfamily 0 group B member 1 (Homo sapiens) (UniProt P51843); details: nuclear receptor panel Gal4 luciferase reporter, DAX, at 10 µM
Sequence of Nuclear receptor subfamily 0 group B member 1 (Homo sapiens) (P51843 whole entry, looked up, the tested form may be a part): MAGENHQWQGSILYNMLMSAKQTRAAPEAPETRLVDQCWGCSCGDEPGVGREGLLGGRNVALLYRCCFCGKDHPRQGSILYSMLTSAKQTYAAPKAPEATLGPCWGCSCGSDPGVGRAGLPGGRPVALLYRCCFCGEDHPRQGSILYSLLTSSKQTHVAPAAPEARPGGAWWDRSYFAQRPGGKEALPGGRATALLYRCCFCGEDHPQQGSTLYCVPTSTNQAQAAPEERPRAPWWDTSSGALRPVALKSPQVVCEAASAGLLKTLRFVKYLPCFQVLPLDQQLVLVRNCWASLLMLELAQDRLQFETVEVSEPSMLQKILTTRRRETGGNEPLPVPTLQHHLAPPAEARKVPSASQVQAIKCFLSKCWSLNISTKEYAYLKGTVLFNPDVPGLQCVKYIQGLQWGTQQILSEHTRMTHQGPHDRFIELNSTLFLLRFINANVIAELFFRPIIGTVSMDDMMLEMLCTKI

TLX = details: nuclear receptor panel Gal4 luciferase reporter, at 10 µM
[5] = target: Peroxisome proliferator-activated receptor alpha (Homo sapiens) (UniProt Q07869); details: nuclear receptor panel Gal4 luciferase reporter, PPARa, at 10 µM
Sequence of Peroxisome proliferator-activated receptor alpha (Homo sapiens) (Q07869 whole entry, looked up, the tested form may be a part): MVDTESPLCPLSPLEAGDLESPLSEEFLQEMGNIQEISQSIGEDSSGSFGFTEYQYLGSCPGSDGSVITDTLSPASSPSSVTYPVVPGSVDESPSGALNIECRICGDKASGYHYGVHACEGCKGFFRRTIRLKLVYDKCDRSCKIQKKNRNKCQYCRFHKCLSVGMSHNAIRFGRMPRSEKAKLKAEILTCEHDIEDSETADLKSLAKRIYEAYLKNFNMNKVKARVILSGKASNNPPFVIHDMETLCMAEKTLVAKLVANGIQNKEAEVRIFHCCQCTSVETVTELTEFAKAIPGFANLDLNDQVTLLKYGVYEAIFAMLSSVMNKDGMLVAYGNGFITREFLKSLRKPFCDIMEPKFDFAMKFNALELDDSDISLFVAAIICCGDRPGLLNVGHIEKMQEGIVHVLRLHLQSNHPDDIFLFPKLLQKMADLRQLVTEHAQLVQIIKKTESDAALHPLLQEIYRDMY

[6] = target: Nuclear receptor subfamily 5 group A member 2 (Homo sapiens) (UniProt O00482); details: nuclear receptor panel Gal4 luciferase reporter, LRH1, at 10 µM
ERRb = details: nuclear receptor panel Gal4 luciferase reporter, at 10 µM
[7] = target: Retinoic acid receptor RXR-beta (Homo sapiens) (UniProt P28702); details: nuclear receptor panel Gal4 luciferase reporter, RXRb, at 10 µM
Sequence of Retinoic acid receptor RXR-beta (Homo sapiens) (P28702 whole entry, looked up, the tested form may be a part): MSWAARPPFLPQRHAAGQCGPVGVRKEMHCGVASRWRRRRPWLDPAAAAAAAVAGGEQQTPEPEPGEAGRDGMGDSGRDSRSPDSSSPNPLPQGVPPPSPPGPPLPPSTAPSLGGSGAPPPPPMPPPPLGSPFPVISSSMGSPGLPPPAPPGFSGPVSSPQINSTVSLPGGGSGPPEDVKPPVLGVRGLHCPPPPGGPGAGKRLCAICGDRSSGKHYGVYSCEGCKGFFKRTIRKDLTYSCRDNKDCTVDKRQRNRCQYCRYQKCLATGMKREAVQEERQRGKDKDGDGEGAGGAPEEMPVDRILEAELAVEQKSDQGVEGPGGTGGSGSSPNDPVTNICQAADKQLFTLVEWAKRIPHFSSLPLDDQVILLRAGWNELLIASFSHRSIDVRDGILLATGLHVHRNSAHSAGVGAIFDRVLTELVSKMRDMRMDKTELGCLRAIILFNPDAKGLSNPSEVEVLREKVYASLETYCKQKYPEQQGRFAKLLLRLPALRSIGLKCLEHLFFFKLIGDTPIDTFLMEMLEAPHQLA

[8] = target: Glucocorticoid receptor (Homo sapiens) (UniProt P04150); details: nuclear receptor panel Gal4 luciferase reporter, GCCR, at 10 µM
Sequence of Glucocorticoid receptor (Homo sapiens) (P04150 whole entry, looked up, the tested form may be a part): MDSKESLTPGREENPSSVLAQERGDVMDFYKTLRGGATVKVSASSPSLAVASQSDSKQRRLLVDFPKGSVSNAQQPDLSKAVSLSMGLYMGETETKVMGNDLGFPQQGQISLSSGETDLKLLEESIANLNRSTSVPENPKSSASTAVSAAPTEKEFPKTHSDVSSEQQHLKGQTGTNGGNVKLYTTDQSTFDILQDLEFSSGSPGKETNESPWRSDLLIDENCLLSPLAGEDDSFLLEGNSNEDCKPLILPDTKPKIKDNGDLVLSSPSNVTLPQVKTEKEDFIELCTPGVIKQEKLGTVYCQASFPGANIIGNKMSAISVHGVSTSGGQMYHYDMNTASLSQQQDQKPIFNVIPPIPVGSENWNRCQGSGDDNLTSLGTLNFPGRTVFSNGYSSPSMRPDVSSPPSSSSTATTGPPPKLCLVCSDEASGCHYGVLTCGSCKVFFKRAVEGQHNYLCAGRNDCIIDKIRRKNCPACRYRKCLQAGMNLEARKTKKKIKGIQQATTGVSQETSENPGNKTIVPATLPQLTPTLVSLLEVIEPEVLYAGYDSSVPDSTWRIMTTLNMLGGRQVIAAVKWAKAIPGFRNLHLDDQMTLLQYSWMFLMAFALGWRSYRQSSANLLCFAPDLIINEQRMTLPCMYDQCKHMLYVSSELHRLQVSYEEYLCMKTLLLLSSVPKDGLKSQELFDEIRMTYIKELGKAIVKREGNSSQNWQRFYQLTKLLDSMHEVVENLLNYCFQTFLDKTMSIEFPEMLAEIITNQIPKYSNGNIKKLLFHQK

[9] = target: Estrogen receptor beta (Homo sapiens) (UniProt Q92731); details: nuclear receptor panel Gal4 luciferase reporter, Erb (ESR2), at 10 µM
Sequence of Estrogen receptor beta (Homo sapiens) (Q92731 whole entry, looked up, the tested form may be a part): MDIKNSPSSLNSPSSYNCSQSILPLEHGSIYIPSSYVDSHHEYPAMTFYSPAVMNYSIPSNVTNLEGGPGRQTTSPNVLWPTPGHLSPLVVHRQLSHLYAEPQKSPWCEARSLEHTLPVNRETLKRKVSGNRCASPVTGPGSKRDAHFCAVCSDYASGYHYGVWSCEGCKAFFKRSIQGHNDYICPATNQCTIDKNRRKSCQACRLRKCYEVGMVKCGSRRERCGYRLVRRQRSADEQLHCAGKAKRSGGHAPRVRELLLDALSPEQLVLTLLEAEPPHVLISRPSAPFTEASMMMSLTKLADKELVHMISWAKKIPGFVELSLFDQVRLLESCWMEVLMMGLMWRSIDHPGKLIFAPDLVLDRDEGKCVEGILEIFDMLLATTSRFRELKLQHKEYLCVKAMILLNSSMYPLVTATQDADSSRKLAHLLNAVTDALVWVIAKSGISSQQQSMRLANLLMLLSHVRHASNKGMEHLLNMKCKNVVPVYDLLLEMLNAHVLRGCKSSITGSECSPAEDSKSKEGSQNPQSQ

[10] = target: Hepatocyte nuclear factor 4-alpha (Homo sapiens) (UniProt P41235); details: nuclear receptor panel Gal4 luciferase reporter, HNF4a, at 10 µM
Sequence of Hepatocyte nuclear factor 4-alpha (Homo sapiens) (P41235 whole entry, looked up, the tested form may be a part): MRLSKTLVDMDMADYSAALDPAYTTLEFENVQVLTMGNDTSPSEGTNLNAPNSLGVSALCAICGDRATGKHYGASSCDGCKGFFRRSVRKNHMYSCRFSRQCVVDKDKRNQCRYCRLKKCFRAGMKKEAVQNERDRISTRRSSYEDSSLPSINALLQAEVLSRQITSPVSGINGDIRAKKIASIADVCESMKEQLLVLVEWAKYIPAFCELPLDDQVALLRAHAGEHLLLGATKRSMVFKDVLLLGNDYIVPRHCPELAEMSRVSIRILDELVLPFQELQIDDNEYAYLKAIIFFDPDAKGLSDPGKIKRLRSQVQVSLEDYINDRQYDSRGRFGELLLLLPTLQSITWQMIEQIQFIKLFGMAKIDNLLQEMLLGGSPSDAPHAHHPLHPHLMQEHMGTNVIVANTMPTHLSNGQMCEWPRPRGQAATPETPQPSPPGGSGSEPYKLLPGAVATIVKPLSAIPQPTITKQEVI

THRa = details: nuclear receptor panel Gal4 luciferase reporter, at 10 µM
RORb = details: nuclear receptor panel Gal4 luciferase reporter, at 10 µM
RARb = details: nuclear receptor panel Gal4 luciferase reporter, at 10 µM
VDR = details: nuclear receptor panel Gal4 luciferase reporter, at 10 µM
[11] = target: Retinoic acid receptor alpha (Homo sapiens) (UniProt P10276); details: nuclear receptor panel Gal4 luciferase reporter, RARa, at 10 µM
Sequence of Retinoic acid receptor alpha (Homo sapiens) (P10276 whole entry, looked up, the tested form may be a part): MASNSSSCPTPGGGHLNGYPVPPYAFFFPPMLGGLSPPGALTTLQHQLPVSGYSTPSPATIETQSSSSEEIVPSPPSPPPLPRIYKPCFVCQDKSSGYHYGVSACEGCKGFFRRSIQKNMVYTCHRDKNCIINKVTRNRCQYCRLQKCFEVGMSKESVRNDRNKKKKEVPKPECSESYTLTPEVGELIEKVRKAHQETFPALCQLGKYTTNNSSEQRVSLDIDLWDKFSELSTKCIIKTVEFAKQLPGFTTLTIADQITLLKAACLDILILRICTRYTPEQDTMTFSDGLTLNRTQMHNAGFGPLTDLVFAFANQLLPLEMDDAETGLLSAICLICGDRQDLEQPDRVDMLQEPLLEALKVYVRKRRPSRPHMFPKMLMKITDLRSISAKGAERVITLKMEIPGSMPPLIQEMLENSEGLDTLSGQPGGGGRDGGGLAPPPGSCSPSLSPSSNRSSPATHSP

HNF4g = details: nuclear receptor panel Gal4 luciferase reporter, at 10 µM

Measured: fold change

Sequence of COUP transcription factor 2 (Homo sapiens) (P24468 whole entry, looked up, the tested form may be a part): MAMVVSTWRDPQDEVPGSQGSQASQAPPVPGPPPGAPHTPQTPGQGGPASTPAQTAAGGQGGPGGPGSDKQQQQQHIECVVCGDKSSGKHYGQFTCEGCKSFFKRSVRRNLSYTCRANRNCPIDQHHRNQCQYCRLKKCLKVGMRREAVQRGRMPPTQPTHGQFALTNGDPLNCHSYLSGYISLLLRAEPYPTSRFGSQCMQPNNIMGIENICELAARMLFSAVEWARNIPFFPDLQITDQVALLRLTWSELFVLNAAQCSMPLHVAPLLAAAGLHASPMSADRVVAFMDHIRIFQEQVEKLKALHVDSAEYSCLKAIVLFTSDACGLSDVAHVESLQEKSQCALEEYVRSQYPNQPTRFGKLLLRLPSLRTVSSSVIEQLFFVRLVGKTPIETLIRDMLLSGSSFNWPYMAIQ

O=c1cc(N2CCN(c3cccc(Cl)c3)CC2)[nH]c(=O)n1C1CCCCC1
inactive: VP16 Control Plasmid 0.82 | [1] 1.04 | [3] 1 | [4] 1.03 | TLX 0.88 | [5] 1.11 | [6] 0.88 | ERRb 1.02 | [8] 1.13 | RORb 0.82 | VDR 0.83
active: TR4 0.8 | ERRg 0.49 | MR 1.41 | [2] 0.61 | [7] 0.78 | [9] 0.56 | [10] 0.61 | THRa 1.69 | RARb 0.54 | [11] 0.47 | HNF4g 0.44

Source: PubChem BioAssay AID504934 (The Scripps Research Institute Molecular Screening Center, 2011)
